Measured values taken from US8106089B2, “Anti-tubulin acting arylpyrrol, arylfuran and arylthiophene derivatives, method for the preparation thereof and for the use thereof as an antimitotic” (Centre National de la Recherche, priority 2004, dated 2012).

Legend:
Format in all cases: cell-based
[1] = system: B16 F1 cells; assay: MTT test, cell growth; settings: Mus musculus, mean ± sd of 3 experiments in triplicate, read-out: IC50 (concentration that inhibits 50% of cell growth) ± sd
Source text: (§1) Aim: Given the role of tubulin in the formation of the mitotic spindle, we analyzed the effect of the compounds according to the present invention on the cell cycle of the following murine cells using various methods: the murine melanoma tumor cell line, the B16 F1 cell line and the mel a cell line (melanocytes), and the L1210 mouse leukemia cell line.
(§2) We initially evaluated the effect of compounds 17, 18 and 19 on the growth of the three cell lines by a “MTT” test. The principle of the MTT test consists of measuring the activity of mitochondrial succinate dehydrogenase in living cells. This enzyme transforms MTT (3-(4,5-dimethylthiazol-2-yl)-2,5-diphenyltetrazolium bromide), yellow in color, into insoluble purple formazan crystals. After dissolution of the crystals in dimethylsulfoxide (DMSO), absorbance is measured at 540 nm by spectrophotometry. The optical densities obtained are directly proportional to the number of living cells. The cytotoxic effect of a sample is evaluated by the percentage of living cells in the presence of this sample, compared to the cells treated with the solvent alone. This method makes it possible to measure the proportion of living cells in a given cell population. By comparison with untreated cells, we thus determined the concentration of each compound that induces a 50% inhibition of cell growth. The IC50 ranges from 50 μM to 100 μM.

[2] = system: L1210 mouse leukemia cells; assay: MTT test, cell growth; settings: mean ± sd of 3 experiments in triplicate, read-out: IC50 (concentration that inhibits 50% of cell growth) ± sd
Source text: as §1, §2

[3] = system: mel a melanocytes; assay: MTT test, cell growth; settings: Mus musculus, Melanocyte, mean ± sd of 3 experiments in triplicate, read-out: IC50 (concentration that inhibits 50% of cell growth) ± sd
Source text: as §1, §2

[4] = system: mouse leukemia (L1210) cells; assay: Cell cycle progression, flow cytometry after propidium iodide labeling; settings: 24 hours
Description: (§3) In order to approach the mechanism of action of these compounds, we then studied their effect on the progression of the cell cycle in mouse melanoma (B16) cells and mouse leukemia (L1210) cells. For this purpose, we compared the distribution of the treated or untreated cells in each phase of the cycle. […] They then were fixed and made permeable with ethanol. After incubation with propidium iodide, which labels cellular DNA, the DNA content of the cells is then analyzed by flow cytometry.

[5] = system: mouse melanoma (B16) cells; assay: as above; settings: for % of B16 cells in phase G1 / % of B16 cells in phase G2/M / % of B16 cells in phase S: 24 hours
Description: as §3

| Compound | IC50 [1] [µM] | IC50 [2] [µM] | IC50 [3] [µM] | % of L1210 cells in phase G1 ([4]; 40 μM) [%] | % of L1210 cells in phase G2/M ([4]; 40 μM) [%] | % of L1210 cells in phase S ([4]; 40 μM) [%] | % of L1210 cells in phase G1 ([4]; 50 μM) [%] | % of L1210 cells in phase G2/M ([4]; 50 μM) [%] | % of L1210 cells in phase S ([4]; 50 μM) [%] | % of B16 cells in phase G1 ([5]; 50 μM) [%] | % of B16 cells in phase G2/M ([5]; 50 μM) [%] | % of B16 cells in phase S ([5]; 50 μM) [%] | % of B16 cells in phase G1 ([5]; 75 μM) [%] | % of B16 cells in phase G2/M ([5]; 75 μM) [%] | % of B16 cells in phase S ([5]; 75 μM) [%] | also measured |
| --- | --- | --- | --- | --- | --- | --- | --- | --- | --- | --- | --- | --- | --- | --- | --- | --- |
| CC(C)c1cc(-c2ccccc2N)c(CCCO)n1C(=O)OC(C)(C)C [Compound 17, 3-(2-Amino-phenyl)-2-(3-hydroxy-propyl)-5-isopropyl-pyrrole-1-carboxylic acid tert-butyl ester] | 88.7 ± 7.6 | 53.7 ± 0.7 | 69.7 ± 0.9 | 54.9 | 23.2 | 21.9 | 39.2 | 43.6 | 17.2 | 58.0 | 25.4 | 16.6 | – | – | – | % of B16 cells in phase G1 ([5]; 70 μM): 40.8%; % of B16 cells in phase G2/M ([5]; 70 μM): 22.3%; % of B16 cells in phase S ([5]; 70 μM): 37%; % of B16 cells in phase G1 ([5]; 100 μM): 43.3%; % of B16 cells in phase G2/M ([5]; 100 μM): 16.5%; % of B16 cells in phase S ([5]; 100 μM): 40.3% |
| CC(C)c1cc(-c2ccccc2)c(CCCO)[nH]1 [Compound 18, 3-(5-Isopropyl-3-phenyl-1H-pyrrol-2-yl)-propan-1-ol] | 171 ± 10.8 | 33.2 ± 1.3 | – | 32.7 | 12.6 | 54.7 | – | – | – | – | – | – | 65.0 | 12.1 | 11.3 | % of L1210 cells in phase G1 ([4]; 55 μM): 30.9%; % of L1210 cells in phase G2/M ([4]; 55 μM): 21.9%; % of L1210 cells in phase S ([4]; 55 μM): 47.2%; % of B16 cells in phase G1 ([5]; 125 μM): 50.0%; % of B16 cells in phase G2/M ([5]; 125 μM): 32.0%; % of B16 cells in phase S ([5]; 125 μM): 5.2%; % of B16 cells in phase G1 ([5]; 150 μM): 42.1%; % of B16 cells in phase G2/M ([5]; 150 μM): 36.0%; % of B16 cells in phase S ([5]; 150 μM): 21.8% |
| CC(C)c1cc(-c2ccccc2N)c(CCCO)[nH]1 [Compound 19, 3-[3-(2-Amino-phenyl)-5-isopropyl-1H-pyrrol-2-yl]-propan-1-ol] | 107 ± 1.8 | 17.7 ± 4.5 | 116 ± 3.2 | – | – | – | 49.5 | 24 | 26.5 | 78.7 | 5.2 | 14.1 | 56.1 | 31.9 | 2.8 | % of L1210 cells in phase G1 ([4]; 75 μM): 39.8%; % of L1210 cells in phase G2/M ([4]; 75 μM): 38.8%; % of L1210 cells in phase S ([4]; 75 μM): 21.4% |
| CC(C)c1ccc(CCCO)[nH]1 [Compound 21, 3-(5-Isopropyl-1H-pyrrol-2-yl)-propan-1-ol] | > 400 | > 400 | – | – | – | – | – | – | – | – | – | – | – | – | – | – |
| CC(C)[C@@H](C=O)NC(=O)OC(C)(C)C [compound 2, (S)—N-(tert-Butoxycarbonyl)valinal] | – | – | – | – | – | – | – | – | – | – | – | – | – | – | – | higher proportion of cells in phase G2/M versus control ([5]; concentrations near IC50 or higher, cell line not stated): approximately 3 times |
